Patent publication US9452122B2, “Composition for improving skin conditions, containing extracellular domain of human bone morphogenetic protein receptor 1a as active ingredient” (JOINT CENTER FOR BIOSCIENCES, priority 2011, dated 2016)

System: wrinkles induced by UV radiation in SKH-1 nude mice
Test: Wrinkle improvement effect of thioredoxin-human BMPR1a ECD in UV-irradiated nude mice (Example 5)
Type: in vivo
Conditions: UV 3 times/week for 11 weeks, 300 μl sample 5 times/week (proteins 1 μM, retinoic acid 0.01%)
Experimental: SKH-1 nude mice (female, 4 weeks old, DooYeol Biotech, Korea) were acclimated for about 2 weeks under conditions of a temperature of 24±2° C. and a humidity of 50±10% in a 12-hr light/12-hr dark cycle, and then divided into six groups for the experiment.
The protein group and control group were respectively treated with […] corresponding samples every week five times. For UV treatment, the back of each mouse was uniformly coated with the previously prepared sample one hour before UV radiation by using Art brush No. 3 (Hwahong, Incheon Korea).
VLX-3W stimulator(Vilber Lourmat, Marne la Vallee, France) was used for a UV radiation equipment. UV radiation was conducted three times every week for a total of 11 weeks: 40 mJ/cm^2 for 1st to 2nd weeks; 50 mJ/cm^2 for 3rd to 4th weeks; 60 mJ/cm^2 for 5th to 9th weeks; and 70 mJ/cm^2 for 10th to 11th weeks.
As the result of integration of the evaluations on respective items through observation by the naked eye, it was verified that skin wrinkles were improved by about 38% in the group coated with retinoic acid, about 42% in the group treated with Lipo-BMPR1a ECD, and about 59% in the group treated with Lipo-thioredoxin-BMPR1a ECD.

CC1=C(/C=C/C(C)=C/C=C/C(C)=C/C(=O)O)C(C)(C)CCC1 [retinoic acid]
skin wrinkles improved (wrinkle scores of 10 grades from photographs): about 38%
